Data as given in paper PMC10630452, “The tumor-enriched small molecule gambogic amide suppresses glioma by targeting WDR1-dependent cytoskeleton remodeling” (Signal Transduction and Targeted Therapy, 2023).

Legend:
[1] = system: primary brain tumor (H-RasV12 activated, p53 silenced); assay: Transgenic mouse glioma model (pTomo-Ras-sip53 lentivirus); format: in vivo, C57BL/6 mice; details: 1 mg/kg i.v. daily for 11 days
Description: Fig. 3 The inhibitory effects of GA-amide in glioma stem cell-derived mouse models and transgenic mouse models. a, b GSC2 cells were implanted s.c. into nude mice. Mice were treated with control (DMSO) (n = 7) or GA-amide (2 mg/kg) (n = 8) via i.p. injection once daily for 11 days, after which a photograph (a) was taken to show the tumor volume, and the tumor volume was calculated by a modified ellipsoid formula in (b). c, d GSC2 cells were implanted intracranially into nude mice. Mice were injected i.v. with control (n = 8) or 1 mg/kg GA-amide (n = 8) daily for 13 days, the Mantel‒Cox log–rank test was used for analysis, and the relative survival curves are shown in (c). The body weights are shown in (d). e In vivo efficacy studies of GA-amide using transgenic mouse models. Glioma was induced in transgenic C57BL/6 mice by injection of pTomo-Ras-sip53 lentivirus, and the strategy is shown. f, g MRI analysis was used to group mice into the control (n = 7) and GA-amide-treated groups (n = 8) before treatment. The statistical results are shown in (f), and representative MRI images are shown in (g). […]

[2] = Acute toxicity assay, blood routine examination; format: in vivo, mice; details: for #Retic (Reticulocyte) / CH (corpuscular hemoglobin) / CHCM (Cellular Hemoglobin Concentration Mean) / CHDW (Cell hemoglobin distribution width) / HCT (Hematocrit) / HDW (Hemoglobin Distribution Width) / HGB (Hemoglobin) / MCH (Mean Corpuscular Hemoglobin) / MCHC (Mean corpuscular hemoglobin concentration) / MCV (Mean Corpuscular Volume) / MPV (Mean platelet volume) / PCT (Plateletocrit) / PDW (Platelet distribution width) / PLT (Platelet) / RBC (Red Blood Cell) / RDW (red blood cell volume distribution width) / WBC (White Blood Cell): mice
[3] = system: PDCs (T2-4, T12-1, T12-2) and GSC2 cells; assay: Limiting dilution assay (self-renewal); format: cell-based; details: pretreatment for 4 h
Description: For the tumor sphere formation assay, cells were inoculated in 96-well plates at 600 cells/well in a volume of 100 μL. The tumor spheres with a diameter of 50–100 μm and a diameter of over 100 μm were counted separately under a microscope after 14 days. For the limiting dilution assay, cells were dissociated to generate a single-cell suspension, which was diluted along a gradient for seeding in a 96-well plate at concentrations ranging from 400 cells to 25 cells in a volume of 100 μL per well.

[4] = system: WDR1 knockout T2-4 and T12-1 cells; assay: Cell viability of WDR1 knockout PDCs; format: cell-based, human; details: WDR1 knockout T2-4 and T12-1 versus sg-NC
Description: The data are representative of 3 wells, scale bar: 500 μm. j Statistical results of the recovery of invasion.
For cell transfection, we first inserted the full-length cDNA encoding WDR1 and the WDR1 sequence with mutation of the four interaction sites into pcDNA3.1. Then, 293T cells were transiently transfected with these plasmids using Lipofectamine 3000 (Invitrogen). For cell transduction, WDR1 knockout and WDR1-overexpressing PDCs were generated by lentiviral transduction and selected by 1 µg/mL puromycin. All sg-WDR1 sequences are listed as follows: sg-WDR1 #2: 5′-[…]-3′, sg-WDR1 #3: 5′-[…]-3′, sg-WDR1 #4: 5′-[…]-3′, sg-WDR1 #5: 5′-[…]-3′. For cell transduction, CFL1 or MYH9 knockdown PDCs were generated by lentiviral transduction and selected by 1 µg/mL puromycin. All shRNA sequences are listed as follows: shCFL1-1: […], shCFL1-2: […], shMYH9-1: GCAAACCTCGAGAAGGCAA, shMYH9-2: GAAGTCAGCTCCCTAAAGA.

Compound: CC(C)=CCC[C@]1(C)C=Cc2c(O)c3c(c(CC=C(C)C)c2O1)O[C@]12C(=C[C@@H]4CC1C(C)(C)O[C@@]2(C/C=C(/C)C(N)=O)C4=O)C3=O [GA-amide, gambogic amide]
- Ki67 and CD133 expression in tumor sections [1]: lower expression of the proliferation marker Ki67
- tumor size by MRI versus control [1]: significantly smaller compared to the control mice
- routine blood parameters and serum biochemical analytes versus control ([2]; 1 mg/kg and 10 mg/kg, one-time i.v., ALT and Cl fluctuated): no significant differences in routine blood parameters and most analytes evaluated in biochemical analysis of mouse serum
- #Retic (Reticulocyte) ([2]; 1mg/kg one-time i.v.): 335.1±72.9 ×109cells/L
- CH (corpuscular hemoglobin) ([2]; 1mg/kg one-time i.v.): 16.8 ± 0.5 pg
- CHCM (Cellular Hemoglobin Concentration Mean) ([2]; 1mg/kg one-time i.v.): 35.7 ± 0.8 g/dL
- CHDW (Cell hemoglobin distribution width) ([2]; 1mg/kg one-time i.v.): 3.00±0.39%
- HCT (Hematocrit) ([2]; 1mg/kg one-time i.v.): 42.8±7.5%
- HDW (Hemoglobin Distribution Width) ([2]; 1mg/kg one-time i.v.): 2.66 ± 0.20 g/dL
- HGB (Hemoglobin) ([2]; 1mg/kg one-time i.v.): 13.0 ± 0.7 g/dL
- MCH (Mean Corpuscular Hemoglobin) ([2]; 1mg/kg one-time i.v.): 14.5 ± 1.7 pg
- MCHC (Mean corpuscular hemoglobin concentration) ([2]; 1mg/kg one-time i.v.): 31.0 ± 3.9 g/dL
- MCV (Mean Corpuscular Volume) ([2]; 1mg/kg one-time i.v.): 47.0 ± 1.8 fL
- MPV (Mean platelet volume) ([2]; 1mg/kg one-time i.v.): 8.3 ± 0.3 fL
- PCT (Plateletocrit) ([2]; 1mg/kg one-time i.v.): 1.33±0.30%
- PDW (Platelet distribution width) ([2]; 1mg/kg one-time i.v.): 48.8±2.5%
- PLT (Platelet) ([2]; 1mg/kg one-time i.v.): 1603±310 ×103cells/μL
- RBC (Red Blood Cell) ([2]; 1mg/kg one-time i.v.): 9.09±1.40 ×106cells/μL
- RDW (red blood cell volume distribution width) ([2]; 1mg/kg one-time i.v.): 16.5±1.2%
- WBC (White Blood Cell) ([2]; 1mg/kg one-time i.v.): 4.78±1.34 ×103cells/μL
- #Retic (Reticulocyte) ([2]; 10mg/kg one-time i.v.): 836.7±674.4 ×109cells/L
- CH (corpuscular hemoglobin) ([2]; 10mg/kg one-time i.v.): 17.0 ± 0.5 pg
- CHCM (Cellular Hemoglobin Concentration Mean) ([2]; 10mg/kg one-time i.v.): 35.4 ± 1.3 g/dL
- CHDW (Cell hemoglobin distribution width) ([2]; 10mg/kg one-time i.v.): 3.15±0.11%
- HCT (Hematocrit) ([2]; 10mg/kg one-time i.v.): 48.5±5.1%
- HDW (Hemoglobin Distribution Width) ([2]; 10mg/kg one-time i.v.): 2.71 ± 0.10 g/dL
- HGB (Hemoglobin) ([2]; 10mg/kg one-time i.v.): 13.6 ± 0.5 g/dL
- MCH (Mean Corpuscular Hemoglobin) ([2]; 10mg/kg one-time i.v.): 13.6 ± 1.8 pg
- MCHC (Mean corpuscular hemoglobin concentration) ([2]; 10mg/kg one-time i.v.): 28.4 ± 3.8 g/dL
- MCV (Mean Corpuscular Volume) ([2]; 10mg/kg one-time i.v.): 47.8 ± 1.1 fL
- MPV (Mean platelet volume) ([2]; 10mg/kg one-time i.v.): 8.4 ± 0.2 fL
- PCT (Plateletocrit) ([2]; 10mg/kg one-time i.v.): 1.63±0.60%
- PDW (Platelet distribution width) ([2]; 10mg/kg one-time i.v.): 49.9±2.3%
- PLT (Platelet) ([2]; 10mg/kg one-time i.v.): 1936±670 ×103cells/μL
- RBC (Red Blood Cell) ([2]; 10mg/kg one-time i.v.): 10.13±1.05 ×106cells/μL
- RDW (red blood cell volume distribution width) ([2]; 10mg/kg one-time i.v.): 17.0±0.6%
- WBC (White Blood Cell) ([2]; 10mg/kg one-time i.v.): 4.38±0.95 ×103cells/μL
- self-renewal (limiting dilution) [3]: suppressed
- suppression of cell proliferation in WDR1 knockout cells [4]: decreased suppressive effects of GA-amide on cell proliferation
